# In patent publication US9815788B2, “Anti-angiogenic compounds” (University College Dublin National University of Ireland, …, priority 2012, dated 2017):
# Experiments:
# [1] = tested on: zebrafish hyaloid vasculature; assay: Quantification of primary hyaloid vasculature branch number in Tg(fli1:EGFP) zebrafish; format: in vivo; settings: for inhibition of developmental angiogenesis of the hyaloid vasculature (number of primary hyaloid vessels): typically 10 μM or 5 μM, from 24 hpf, vs DMSO control; for dose-dependent inhibition of development of hyaloid vessels: decreasing doses 20, 10, 7.5, 5, 2.5, 1 and/or 0.5 μM
# Method: (§1) All experiments were carried out under ethical approval granted by the UCD animal research ethics committee. Tg(fli1:EGFP) zebrafish were maintained according to standard procedures on a 14 hr light/10 hr dark cycle at 28° C. Embryos were obtained by natural spawning and developmental stages established by time and morphological criteria. […] Larvae were euthanised, and fixed in 4% PFA at 4° C. overnight before analysis.
# Overall patterning of the vasculature (fin, gut and intersegmental vessels) was examined for abnormalities. Right lenses were dissected from the larvae and transferred to depression slides for observation under epi-fluorescence in the Olympus SZX16. Patterning of the hyaloid vessels on the treated larval lenses was compared to DMSO controls and the archetypal pattern previously described (Alvarez et al., 2007; Alvarez et al., 2009).
# as §1, with “analysis. Lenses were dissected from the larvae and transferred to depression slides for observation under epi-fluorescence in the Olympus SZX16. Patterning of the hyaloid vessels on the treated larval lenses was compared to DMSO controls and the archetypal pattern previously described (Alvarez et al., 2007; Alvarez et al., 2009).” for “analysis.”
# [2] = tested on: zebrafish intersegmental vessels; assay: Quantification of intersegmental vessel number in zebrafish; format: in vivo
# Method: […] Larvae were manually dechorionated, euthanised, and fixed in 4% PFA at 4° C. overnight before analysis. The larvae were then washed with PBS and transferred to depression slides for observation under epi-fluorescence in an Olympus SZX16 fluorescent microscope. The number of intersegmental vessels was counted and the average number was graphed for each drug.
# Larvae were manually dechorionated, euthanised, and fixed in 4% PFA at 4° C. overnight before analysis. The larvae were then washed with PBS and transferred to depression slides for observation under epi-fluorescence in an Olympus SZX16 fluorescent microscope. The number of intersegmental vessels was counted and the average number was graphed for each drug.
SMILES,inhibition of developmental angiogenesis of the hyaloid vasculature (number of primary hyaloid vessels) [1],"inhibition of developmental angiogenesis of intersegmental vessels (number of intersegmental vessels) ([2]; 10 μM, from 6 hpf)",other results
"Oc1cccc(CCc2ccc3ccccc3n2)c1 [Compound 11B_CC5, 3-(2-Quinolin-2-yl-ethyl)-phenol]",inhibit developmental angiogenesis of the zebrafish hyaloid vasculature in a statistically significant manner,–,–
"Cc1cccc(/C=C/c2ccc3cccc(O)c3n2)c1O [Compound 11B-438, 2-[(E)-2-(2-Hydroxy-3-methylphenyl)vinyl]-8-quinolinol]",inhibit developmental angiogenesis of the zebrafish hyaloid vasculature in a statistically significant manner,inhibit developmental angiogenesis of zebrafish intersegmental vessels in a statistically significant manner,–
"Oc1ccc(-c2ccc3c(c2)OCO3)cc1CN1CCc2ccccc2C1 [Compound 11F-978, 4-(1,3-benzodioxol-5-yl)-2-(3,4-dihydro-2(1H)-isoquinolinylmethyl)phenol]",inhibit developmental angiogenesis of the zebrafish hyaloid vasculature in a statistically significant manner,–,–
"Oc1cccc(C#Cc2ccc3ccccc3n2)c1 [Compound 11B_CC15, 3-Quinolin-2-yl-ylethynyl-phenol]",–,inhibit developmental angiogenesis of zebrafish intersegmental vessels in a statistically significant manner,–
"COc1cc(CN2CCc3ccccc3C2)cc2c1OCO2 [Compound 11F-708, 2-[(7-methoxy-1,3-benzodioxol-5-yl)methyl]-1,2,3,4-tetrahydroisoquinoline]",inhibit developmental angiogenesis of the zebrafish hyaloid vasculature in a statistically significant manner,–,–
"Oc1cccc(C=Cc2ccc3ccccc3n2)c1 [Compound 11B_CC2, 3-(2-Quinolin-2-yl-vinyl)-phenol]",inhibit developmental angiogenesis of the zebrafish hyaloid vasculature in a statistically significant manner,inhibit developmental angiogenesis of zebrafish intersegmental vessels in a statistically significant manner,–
"Cl.Oc1cccc(C=Cc2ccc3ccccc3n2)c1 [Compound 11B_CC2_HCl, 3-(2-Quinolin-2-yl-vinyl)-phenol HCl salt]",inhibit developmental angiogenesis of the zebrafish hyaloid vasculature in a statistically significant manner,inhibit developmental angiogenesis of zebrafish intersegmental vessels in a statistically significant manner,–
"Cl.Oc1ccc(C=Cc2ccc3ccccc3n2)cc1 [Compound 11B_CC3_HCl, 4-(2-Quinolin-2-yl-vinyl)-phenol HCl salt]",–,inhibit developmental angiogenesis of zebrafish intersegmental vessels in a statistically significant manner,–
"CCN1CCc2cc(OC)c(OC)cc2C1c1ccc2c(c1)OCO2 (racemic) [Compound 11F-CC10, (rac)-1-Benzo[1,3]dioxol-5-yl-6,7-dimethoxy-2-ethyl-1,2,3,4-tetrahydro-isoquinoline]",inhibit developmental angiogenesis of the zebrafish hyaloid vasculature in a statistically significant manner,–,–
"Cl.Oc1cccc(CCc2ccc3ccccc3n2)c1 [Compound 11B_CC5_HCl, 3-(2-Quinolin-2-yl-ethyl)-phenol HCl salt]",inhibit developmental angiogenesis of the zebrafish hyaloid vasculature in a statistically significant manner,inhibit developmental angiogenesis of zebrafish intersegmental vessels in a statistically significant manner,"dose-dependent inhibition of development of hyaloid vessels ([1]; HCl salt): inhibit developmental angiogenesis of zebrafish hyaloid vasculature in a dose-dependent statistically significant manner; dose-dependent inhibition of development of hyaloid vessels ([1]; listed as 11B-CC5 HCl, HCl salt): dose-dependent effect"
"Oc1ccccc1/C=C\c1ccc2ccccc2n1 [Compound 11B_Z, (Z)-2-(2-(Quinolin-2-yl)vinyl) phenol]",inhibit developmental angiogenesis of the zebrafish hyaloid vasculature in a statistically significant manner,inhibit developmental angiogenesis of zebrafish intersegmental vessels in a statistically significant manner,–
"CCOc1cc2c(cc1OCC)C(c1cc3c(cc1Br)OCO3)NCC2 (stereo not shown) [Compound 11F-001, 1-(6-bromo-1,3-benzodioxol-5-yl)-6,7-diethoxy-1,2,3,4-tetrahydroisoquinoline]",inhibit developmental angiogenesis of the zebrafish hyaloid vasculature in a statistically significant manner,–,–
"C/C(=C\c1ccccc1O)c1ccc2ccccc2n1 [Compound 11B_CC11, (E)-2-(2-Quinolin-2-yl-propenyl)-phenol]",inhibit developmental angiogenesis of the zebrafish hyaloid vasculature in a statistically significant manner,inhibit developmental angiogenesis of zebrafish intersegmental vessels in a statistically significant manner,–
"Oc1ccccc1/C=C/c1cc(O)c2ccccc2n1 [Compound 11B-470, 2-[(E)-2-(2-Hydroxyphenyl)vinyl]-4-quinolinol]",–,inhibit developmental angiogenesis of zebrafish intersegmental vessels in a statistically significant manner,–
"COc1ccc(I)cc1C=Cc1ccc2ccccc2n1 [Compound 11B-412, 2-[2-(5-iodo-2-methoxyphenyl)vinyl]quinoline]",–,inhibit developmental angiogenesis of zebrafish intersegmental vessels in a statistically significant manner,–
"Cl.Oc1ccccc1CCc1ccc2ccccc2n1 [Compound 11B_CC4_HCl, 2-(2-Quinolin-2-yl-ethyl)-phenol HCl salt]",inhibit developmental angiogenesis of the zebrafish hyaloid vasculature in a statistically significant manner,inhibit developmental angiogenesis of zebrafish intersegmental vessels in a statistically significant manner,"dose-dependent inhibition of development of hyaloid vessels ([1]; HCl salt): inhibit developmental angiogenesis of zebrafish hyaloid vasculature in a dose-dependent statistically significant manner; dose-dependent inhibition of development of hyaloid vessels ([1]; listed as 11B-CC4 HCl, HCl salt): dose-dependent effect"
"COc1ccc(Br)cc1C=Cc1ccc2ccccc2n1 [Compound 11B-074, 2-[2-(5-bromo-2-methoxyphenyl)vinyl]quinoline]",inhibit developmental angiogenesis of the zebrafish hyaloid vasculature in a statistically significant manner,–,–
"Cc1ccc2nc(/C=C/c3cccc(O)c3)ccc2c1 [Compound 11B-814, 3-[(E)-2-(6-Methyl-2-quinolinyl)vinyl]phenol]",inhibit developmental angiogenesis of the zebrafish hyaloid vasculature in a statistically significant manner,–,dose-dependent inhibition of development of hyaloid vessels [1]: dose-dependent effect
"Oc1cccc2ccc(C=Cc3ccccc3Cl)nc12 [Compound 11B-736, 2-[2-(2-chlorophenyl)vinyl]-8-quinolinol]",–,inhibit developmental angiogenesis of zebrafish intersegmental vessels in a statistically significant manner,–
"Oc1ccc(O)c(/C=C/c2ccc3ccccc3n2)c1 [Compound 11B_CC12, (E)-2-(2-Quinolin-2-yl-vinyl)--benzene-1,4-diol]",–,–,"inhibition of developmental angiogenesis of intersegmental vessels (number of intersegmental vessels) ([2]; 11B_CC12 tested at 2.5 μM, n=2): inhibit developmental angiogenesis of zebrafish intersegmental vessels in a statistically significant manner"
"Cl.Oc1cccc(C#Cc2ccc3ccccc3n2)c1 [Compound 11B_CC15_HCl, 3-Quinolin-2-yl-ylethynyl-phenol HCl salt]",–,inhibit developmental angiogenesis of zebrafish intersegmental vessels in a statistically significant manner,–
"CCOc1ccccc1C=Cc1ccc2cccc(O)c2n1 [Compound 11B-739, 2-[2-(2-ethoxyphenyl)vinyl]-8-quinolinol]",inhibit developmental angiogenesis of the zebrafish hyaloid vasculature in a statistically significant manner,–,–
